As usually defined, the Kd is the free concentration of one partner at which half of the binding sites on the other are occupied at equilibrium, for simple one-to-one binding. A high value points to a looser complex. The Ki is a dissociation constant, usually derived from enzyme kinetics or from competition with a known ligand. Low readings indicate tighter binding, high ones weaker binding.

The first experiment has as its target tubulin (αβ-heterodimer). The experiment in a line: [3H] radioligand binding. More on the design: species or system Bos taurus.
Conditions: not given
The compound spongistatin 1 came in with a Kd of 1100 ± 300 nM.

The target in the next experiment is tubulin (αβ-heterodimer). Nature of the experiment: competition with [3H]spongistatin […], centrifugal gel filtration. Type of experiment: binding, Bos taurus.
Conditions: not given
(Size exclusion chromatography separates by hydrodynamic size, large species first.)
Regarding `C=C(Cl)/C=C/C(O)CC(=C)CC1OC2C(C)C(OC(=O)CC3CC(O)CC4(CC(C)(O)CC(/C=C5/COC(C(C)C(=O)CC6CC(OC)CC7(CC(O)CC(/C=C\CCCC8OC(O)(CC(O)C8C)C2O)O7)O6)C5C)O4)O3)C1O` (stereo not shown) [spongistatin 5], affinity was put at a Ki of 2200 nM.

The test system of a further experiment is HeLa. The experiment in a line: cells. More on the design: species or system OVCAR-8, NCI/ADR-RES. The conditions noted are these: Homo sapiens, 96 h, read-out: HeLa / IC50 (nM) ± S.D.).
As for `CC(C)[C@H](O)C(=O)N[C@H]1Cc2ccc3c(c2)[C@]24C5=C(N=C(O5)[C@H](C(C)C)NC1=O)c1nc(Cl)c(o1)-c1c(Cl)[nH]c5cccc(c15)-c1cccc2c1N[C@@H]4O3` [Diazonamide A], the IC50 came out at 15 ± 5 nM.
As to `C=C1C[C@@H]2CC[C@@]34C[C@H]5O[C@H]6[C@@H](O3)[C@H]3O[C@H](CC[C@@H]3O[C@H]6[C@H]5O4)CC(=O)C[C@@H]3[C@@H](OC)[C@@H](C[C@H](O)CN)O[C@H]3C[C@H]3O[C@@H](CC[C@@H]1O2)C[C@@H](C)C3=C` [eribulin], the IC50 came to 20 nM.
The same measure, in the same setting: for `CC[C@]1(O)C[C@@H]2CN(CCc3c([nH]c4ccccc34)[C@@](C(=O)OC)(c3cc4c(cc3OC)N(C)[C@H]3[C@@](O)(C(=O)OC)[C@H](OC(C)=O)[C@]5(CC)C=CCN6CC[C@]43[C@@H]65)C2)C1` [vinblastine] the value was 6 ± 3 nM; for `COc1ccc(C[C@H]2NC(=O)/C=C/C[C@@H]([C@H](C)[C@H]3O[C@@H]3c3ccccc3)OC(=O)[C@H](CC(C)C)OC(=O)[C@H](C)CNC2=O)cc1Cl` [cryptophycin 1], 0.01 ± 0.004 nM; for `CC[C@H](C)[C@@H]([C@@H](CC(=O)N1CCC[C@H]1[C@H](OC)[C@@H](C)C(=O)N[C@@H](Cc1ccccc1)c1nccs1)OC)N(C)C(=O)[C@@H](NC(=O)[C@H](C(C)C)N(C)C)C(C)C` [dolastatin 10], 0.04 ± 0.01 nM.
Same read-out and setting: for `CO[C@@H](/C(C)=C/C=C/C(C)=C/c1coc(C)n1)[C@@H](C)[C@@H]1C[C@H](O)[C@@]2(C)O[C@@H]2/C=C/[C@@H](C)[C@H]2C[C@H](CC(=O)O2)C[C@@H]2O[C@H]2C(=O)O1` [Rhizoxin] the value was 3 ± 1 nM; for `COc1cc2cc(c1Cl)N(C)C(=O)C[C@H](OC(=O)[C@H](C)N(C)C(C)=O)[C@]1(C)O[C@H]1[C@H](C)[C@@H]1C[C@@](O)(NC(=O)O1)[C@H](OC)/C=C/C=C(\C)C2` [Maytansine], 2 nM; for `CN[C@H](C(=O)N[C@H](C(=O)N(C)[C@H](/C=C(\C)C(=O)O)C(C)C)C(C)(C)C)C(C)(C)c1cn(C)c2ccccc12` [hemiasterlin], 0.25 ± 0.05 nM.

Source of the values: article PMC10062379 (Archives of biochemistry and biophysics, 2022).
